According to US11447498B2, “Fused tetracyclic compounds and uses thereof in medicine” (SUNSHINE LAKE PHARMA CO., LTD., priority 2018, dated 2022):
pIC50: −log10 of the molar value.

Key:
[1] = PK test experiments in SD rats; type: in vivo; parameters: VSS: unit not given here; details: for AUC(0-inf) / AUC(0-t) / Cmax / clearance: male, rat, plasma
Protocol: (§1) The PK test in vivo of the compound of the present invention in SD rats (body weight 200-250 g, male, age 2-3 months, 3 per group with oral administration, 3 per group with intravenous injection) The SD rat was administered orally with 2.5 mg/kg or 5 mg/kg of the compound tested or intravenously injected with 0.5 mg/kg or 1 mg/kg of the compound tested. After administration, venous blood was collected at time points (0.083, 0.25, 0.5, 1, 2, 5, 7 and 24 hours) and collected in an anticoagulation tube to which EDTA-K2 was added. Plasma samples were extracted by liquid-liquid extraction and quantitatively analyzed by multiple reaction ion monitoring (MRM) on a triple quadrupole tandem mass spectrometer. Pharmacokinetic parameters were calculated using a noncompartmental method by WinNonLin 6.3 software.

[2] = test system: HBsAg secretion; assay: Inhibition experiment on HBsAg secretion (HepG 2,2,15 cells, ELISA); type: cell-based; details: Hepatitis B virus, HepG2.2.15, read-out: HBsAg IC50
From the text: (§2) The chromosomal integration of HepG2,2,15 cells (SELLS, PNAS, 1987 and SELLS, JV, 1988) has a complete HBV genome and stably expresses viral RNA and viral proteins. HepG2,2,15 cells are capable of secreting mature hepatitis B virus particles and HBsAg into the culture medium. Virus particles DNA and HBsAg secreted by HepG 2,2,15 cells can be quantified by qPCR and ELISA, and the effects of compounds on viral replication and HBsAg secretion can be detected.
(§3) HepG 2,2,15 cells were inoculated with 8,000 per cell to 96-well cell culture plates in duplicate, and were cultured for 3 days until the cells grew to full-hole. Cells were treated with 4-fold serial dilutions of compounds for 10 days, and were given once every other day. The final concentration of DMSO in all pores was 0.5% and DMSO was used as a drug-free control. The supernatant was collected for quantitative detection of HBsAg on day 11.
The level of HBsAg secreted by the cells after treatment of the compound was detected by ELISA method, and the method used a hepatitis B surface antigen diagnostic kit (Shanghai Kehua Biotech Co., Ltd. S10910113). 25 μL of the supernatant to be assayed (PBS was diluted to 75 μL) was added to per well in the ELISA plate, and the kit positive control and negative control were set. The ELIS A plate was blocked with a cover paper and incubated at 37° C. for 60 minutes. The ELISA plate was taken out, and the cover paper was teared off, and 50 μL of enzyme conjugate was added to each well. The ELISA plate was oscillated on the shaker for 10 seconds, blocked with a cover paper and incubated at 37° C. for 30 minutes. The ELISA plate was taken out, the cover paper was teared off, and the ELISA plate was washed 5 times: each time the liquid in the hole was discarded, and the washing liquid was filled into the holes, left to stand for 60 seconds, dried, and the liquid residue was patted to dry on the absorbent paper. A freshly prepared mixture of Developer A and Developer B was added to all wells immediately after washing: 100 μL per well. The ELISA plate was oscillated on the shaker for 10 seconds, blocked with a cover paper and incubated at 37° C. for 30 minutes. 50 μL of stop solution was added to all wells. Absorbance was read on the Envision plate reader at a wavelength of 450 nm.
Concentration-HBsAg OD450 was processed using Graphpad Prism 5 software, and IC50 of compounds inhibiting against HBsAg secretion was calculated by four-parameter nonlinear regression model.

[3] = test system: HBV DNA replication; assay: Inhibition experiment on HBV virus replication (HepG 2,2,15 cells, supernatant HBV DNA by qPCR); type: cell-based; details: Hepatitis B virus, HepG2.2.15, 10 days treatment, supernatant HBV DNA on day 11
From the text: as §2
as §3, with “HBV DNA” for “HBsAg”
Viral genomic DNA was detected by qPCR method, and HBV primers were as follows: […]
The SYBR Premix Ex Taq D-Takara DRR081S kit was used, and 1 μL of cell culture supernatant was used as a template. A standard curve was made using a plasmid containing the HBV genome, and the viral copy number was calculated using the standard curve. Concentration-virus copy number was processed using Graphpad Prism 5 software, and IC50 of compounds inhibiting virus replication was calculated by four-parameter nonlinear regression model.

[4] = PK test experiments in beagle dogs; type: in vivo; details: for AUC(0-inf) / AUC(0-t) / Cmax / clearance: male, dog, plasma
Protocol: as §1, with “beagle dogs” for “SD rats”, “10-12 kg,” for “200-250 g,”, “10-12” for “2-3”, “beagle dog” for “SD rat”, “administered orally with 2.5 mg/kg or 5 mg/kg of the compound tested or intravenously injected with 0.5 mg/kg or 1 mg/kg of the compound tested.” left out, “4, 6, 8” for “5, 7”

Row | Structure (SMILES) | VSS ([1]; IV, 1 mg/kg) | F ([1]; PO, 5 mg/kg) [%] | AUC(0-inf) ([1]; IV, 1 mg/kg) [ng·h/mL] | AUC(0-t) ([1]; IV, 1 mg/kg) [ng·h/mL] | Cmax ([1]; IV, 1 mg/kg) [ng/mL] | clearance ([1]; IV, 1 mg/kg) [mL/min/kg] | AUC(0-inf) ([1]; PO, 5 mg/kg) [ng·h/mL] | AUC(0-t) ([1]; PO, 5 mg/kg) [ng·h/mL] | Cmax ([1]; PO, 5 mg/kg) [ng/mL] | pIC50 [2] | pIC50 [3] | VSS ([4]; IV, 0.5 mg/kg) [kg⁻¹] | F ([4]; PO, 2.5 mg/kg) [%] | AUC(0-inf) ([4]; IV, 0.5 mg/kg) [ng·h/mL] | AUC(0-t) ([4]; IV, 0.5 mg/kg) [ng·h/mL] | Cmax ([4]; IV, 0.5 mg/kg) [ng/mL] | clearance ([4]; IV, 0.5 mg/kg) [mL/min/kg] | AUC(0-inf) ([4]; PO, 2.5 mg/kg) [ng·h/mL] | AUC(0-t) ([4]; PO, 2.5 mg/kg) [ng·h/mL] | Cmax ([4]; PO, 2.5 mg/kg) [ng/mL]
1 | COCCCOc1cc2c(c3c1OCC3)-c1cc(=O)c(C(=O)O)cn1C(C(C)C)C2 (centres unmarked) [Example 2, 7-Isopropyl-4-(3-methoxypropoxy)-11-oxo-2,6,7,11-tetrahydro-1H-furo[2,3-h]pyrido[2,1-a]isoquinoline-10-carboxylic Acid] | 1.8 | 174.5 | 1330 | 1210 | 738 | 12.6 | 10600 | 10600 | 1860 | 8.84 | 8.92 |  |  |  |  |  |  |  |  | 
2 | CC(C)C1Cc2cc(OCCC3CC3)c3c(c2-c2cc(=O)c(C(=O)O)cn21)CCO3 (centres unmarked) [Example 3, 4-(2-Cyclopropylethoxy)-7-isopropyl-11-oxo-2,6,7,11-tetrahydro-1H-furo[2,3-h]pyrido[2,1-a]isoquinoline-10-carboxylic Acid] | 1.5 | 167.4 | 1760 | 1630 | 744 | 9.45 | 14800 | 14700 | 1810 | 8.85 | 8.80 |  |  |  |  |  |  |  |  | 
3 | CC(C)C1Cc2cc(-c3cnn(C(C)C)c3)c3c(c2-c2cc(=O)c(C(=O)O)cn21)CCO3 (centres unmarked) [Example 9, 7-Isopropyl-4-(1-isopropyl-1H-pyrazol-4-yl)-11-oxo-2,6,7,11-tetrahydro-1H-furo[2,3-h]pyrido[2,1-a]isoquinoline-10-carboxylic Acid] | 2.2 | 94 | 1190 | 1180 | 641 | 14 | 5590 | 5560 | 1630 | 8.55 | 8.96 |  |  |  |  |  |  |  |  | 
4 | CC1(C)CCC2c3cc(OCCC4CC4)c4c(c3-c3cc(=O)c(C(=O)O)cn3N21)CCO4 (centres unmarked) [Example 13, 5-(2-Cyclopropylethoxy)-1,1-dimethyl-10-oxo-2,3,3a,7,8,10-hexahydro-1H-furo[3,2-f]pyrido[1,2-c]pyrrolo[2,1-a]phthalazine-11-carboxylic Acid] | 1.4 | 129 | 2860 | 2830 | 1000 | 5.84 | 18400 | 18300 | 1700 | 9.47 | > 9.62 |  |  |  |  |  |  |  |  | 
5 | CC(C)N1Cc2cc(OCCC3CC3)c3c(c2-c2cc(=O)c(C(=O)O)cn21)CCO3 [Example 15, 4-(2-Cyclopropylethoxy)-7-isopropyl-11-oxo-2,6,7,11-tetrahydro-1H-furo [2,3-h]pyrido[2,1-a]phthalazine-10-carboxylic Acid] | 0.9 | 157.9 | 2280 | 2140 | 1500 | 7.32 | 17800 | 17700 | 2170 | 8.50 | 8.74 | 0.23 | 102.2 | 12200 | 11900 | 2010 | 0.69 | 62400 | 60500 | 7090
6 | CC(C)N1Cc2cc(-c3cnn(C(C)C)c3)c3c(c2-c2cc(=O)c(C(=O)O)cn21)CCO3 [Example 17, 7-Isopropyl-4-(1-isopropyl-11-pyrazol-4-yl)-11-oxo-2,6,7,11-tetrahydro-1H-furo[2,3-h]pyrido[2,1-a]phthalazine-10-carboxylic Acid] | 1.01 | 130.6 | 1640 | 1610 | 932 | 10.1 | 10700 | 10700 | 1620 | 8.49 | 8.82 |  |  |  |  |  |  |  |  | 
7 | CC(C)C1Cc2cc(-c3cnn(C4CCC4)c3)c3c(c2-c2cc(=O)c(C(=O)O)cn21)CCO3 (centres unmarked) [Example 33, 4-(1-Cyclobutyl-1H-pyrazol-4-yl)-7-isopropyl-11-oxo-2,6,7,11-tetrahydro-1H-furo[2,3-h]pyrido[2,1-a]isoquinoline-10-carboxylic Acid] |  |  |  |  |  |  |  |  |  | 8.87 | 8.91 |  |  |  |  |  |  |  |  | 
8 | CC(C)C1Cc2cc(-c3cnn(C4CCOCC4)c3)c3c(c2-c2cc(=O)c(C(=O)O)cn21)CCO3 (centres unmarked) [Example 34, 7-Isopropyl-11-oxo-4-(1-(tetrahydro-2H-pyran-4-yl)-1H-pyrazol-4-yl)-2,6,7,11-tetrahydro-1H-furo[2,3-h]pyrido[2,1-a]isoquinoline-10-carboxylic Acid] |  |  |  |  |  |  |  |  |  | 8.63 | 8.43 |  |  |  |  |  |  |  |  | 
9 | CC(C)C1Cc2cc(-c3cnn(C4COC4)c3)c3c(c2-c2cc(=O)c(C(=O)O)cn21)CCO3 (centres unmarked) [Example 35, 7-Isopropyl-4-(1-(oxetan-3-yl)-1H-pyrazol-4-yl)-11-oxo-2,6,7,11-tetra hydro-1H-furo[2,3-h]pyrido[2,1-a]isoquinoline-10-carboxylic Acid] |  |  |  |  |  |  |  |  |  | 8.48 | 8.63 |  |  |  |  |  |  |  |  | 
10 | COCCCOc1cc2c(c3c1OC(C)(C)C3)-c1cc(=O)c(C(=O)O)cn1C(C(C)C)C2 (centres unmarked) [Example 39, 7-Isopropyl-4-(3-methoxypropoxy)-2,2-dimethyl-11-oxo-2,6,7,11-tetrahydro-1H-furo[2,3h]pyrido[2,1-a]isoquinoline-10-carboxylic Acid] |  |  |  |  |  |  |  |  |  | 9.04 | 8.78 |  |  |  |  |  |  |  |  | 
11 | CC(C)C1Cc2cc(OCCC3CC3)c3c(c2-c2cc(=O)c(C(=O)O)cn21)CC(C)(C)O3 (centres unmarked) [Example 40, 4-(2-Cyclopropylethoxy)-7-isopropyl-2,2-dimethyl-11-oxo-2,6,7,11-tetrahydro-1H-furo[2,3-h]pyrido[2,1-a]isoquinoline-10-carboxylic Acid] |  |  |  |  |  |  |  |  |  | 9.27 | 8.84 |  |  |  |  |  |  |  |  | 
12 | CC(C)C1Cc2cc(-c3cnn(C(F)F)c3)c3c(c2-c2cc(=O)c(C(=O)O)cn21)CC(C)(C)O3 (centres unmarked) [Example 41, 4-(1-(Difluoromethyl)-1H-pyrazol-4-yl)-7-isopropyl-2,2-dimethyl-11-oxo-2,6,7,11-tetrahydro-1H-furo[2,3-h]pyrido[2,1-a]isoquinoline-10-carboxylic Acid] |  |  |  |  |  |  |  |  |  | 9.27 | 8.68 |  |  |  |  |  |  |  |  | 
13 | CC(C)N1Cc2cc(-c3cnn(C(F)F)c3)c3c(c2-c2cc(=O)c(C(=O)O)cn21)CCO3 [Example 43, 4-(1-(Difluoromethyl)-1H-pyrazol-4-yl)-7-isopropyl-11-oxo-2,6,7,11-tetrahydro-1H-furo[2,3-h]pyrido[2,1-a]phthalazine-10-carboxylic Acid] |  |  |  |  |  |  |  |  |  | 9.01 | 8.73 | 0.48 | 100.7 | 9990 | 9030 | 1080 | 0.83 | 49300 | 45500 | 5770
